Assay results published in US20220008553A1, “ANTI-ERBB2 ANTIBODY-DRUG CONJUGATE AND COMPOSITION THEREOF, PREPARATION METHOD THEREFOR, AND USE THEREOF” (SICHUAN KELUN-BIOTECH BIOPHARMACEUTICAL CO., LTD., priority 2015, published 2022).

How the values were obtained:
JIMT-1 cells = conditions: 3 mg/kg, single injection via tail vein, 31st day after injection
Method: NOD/SCID mice were subcutaneously inoculated with JIMT-1 cells to establish a subcutaneous xenograft model of human-derived breast cancer. […] Each group has 8 mice, and the administration was a single injection via tail vein. Tumor volume was measured on the 31st day after the single injection (i.e., 43rd day after inoculation of JIMT-1 cells), and TGI was calculated. The efficacy was evaluated based on TGI, and the tolerance was evaluated based on body weight changes and death of the mice. TGI was calculated as described above in (1).

GA0006 tumor mass = conditions: 15 mg/kg, single injection via tail vein, 21st day after injection
Method: BALB/c nude mice were subcutaneously inoculated with GA0006 tumor mass to establish a subcutaneous xenograft model of human-derived gastric cancer. The administration was conducted when the average tumor volume reached 141 mm^3. […] Each group has 8 mice, and the administration was a single injection via tail vein. Tumor volume was measured on the 21st day after the single injection, and TGI was calculated. The efficacy was evaluated based on TGI, and the tolerance was evaluated based on body weight changes and death of the mice. TGI was calculated as described above in (1).

BT-474 cells = conditions: 3 mg/kg, single injection via tail vein, 31st day after injection
Method: NOD/SCID mice were orthotopically inoculated with BT-474 cells to establish an orthotopic xenograft model of human-derived breast cancer. […] Each group has 10 mice, and the administration was a single injection via tail vein. Tumor volume was measured on the 31st day after the single injection (i.e., 39th day after inoculation of BT-474 cells), and TGI was calculated. The efficacy was evaluated based on TGI.
wherein VTe: Average tumor volume of treatment group at the end of observation • VTs: Average tumor volume of treatment group at the administration • VCe: Average tumor volume of control group at the end of observation • VCs: Average tumor volume of control group at the administration

Calu-3 cells = conditions: 1 mg/kg, single injection via tail vein, 31st day after injection
Method: BALB/c Nude mice were subcutaneously inoculated with Calu-3 cells to establish a subcutaneous xenograft model of human-derived lung adenocarcinoma. […] Each group has 8 mice, and the administration was a single injection via tail vein. Tumor volume was measured on the 31st day after the single injection (36th day after inoculation of Calu-3 cells), and TGI was calculated. The efficacy was evaluated based on TGI, and the tolerance was evaluated based on body weight changes and death of the mice. TGI was calculated as described above in (1).

[1] = system: ovarian cancer cell line SK-OV-3; conditions: mouse, in vivo
Method: (§1) The change of tumor volume and animal weight were measured for calculation of the efficacy (tumor-inhibitory efficacy) of the antibody-drug conjugates in the tumor-bearing mice.
(§2) After gently shaking, the mother solutions were sub-packed and stored at −80° C. Treatment solutions for use were obtained by dilution with normal saline, and a normal saline at the same concentration was used as solvent control.
(§3) The tumor-bearing mice (models obtained in 1.2) with tumor volume of 100-200 mm^3 were randomly assigned (the number of samples in each group was determined according to sample quantity), 7 mice per group. The dosage was 10 ml/kg. The route of administration was single intravenous injection in caudal vein. After administration, the tumor diameter was measured with vernier caliper twice a week for an observation period of 8 weeks, and the tumor volume was calculated according to the following equation: V=0.5 a^2×b, wherein a and b represent the […] of the tumor, respectively. Animal deaths were observed and recorded daily.
(§4) The tumor growth inhibition TGI (%) was calculated with the following equation for evaluating the antitumor efficacy of the antibody-drug conjugates: […]

[2] = system: human gastric cancer cell line NCI-N87; conditions: mouse, in vivo
Method: as §1, §2, §3, §4

[3] = system: breast cancer cell line BT474; conditions: mouse, in vivo
Method: as §1, §2, §3, §4

MDA-MB-468 (HER2−) = conditions: 1 h incubation, FACS
Method: (§5) The fluorescent intensity of cell surface binding was measured with FACS to determine the affinity of the drugs to the above cells.

BT-474 (HER2+++) = conditions: 1 h incubation, FACS
Method: as §5

JIMT-1 (HER2+) = conditions: 1 h incubation, FACS
Method: as §5

BR0438 tumor mass = conditions: 15 mg/kg, single injection via tail vein, 21st day after injection
Method: NOD/SCID mice were subcutaneously inoculated with BR0438 tumor mass to establish a subcutaneous xenograft model of human-derived breast cancer. The administration was conducted when the average tumor volume reached 173 mm^3. […] Each group has 8 mice, and the administration was a single injection via tail vein. Tumor volume was measured on the 21st day after the single injection, and TGI was calculated. The efficacy was evaluated based on TGI, and the tolerance was evaluated based on body weight changes and death of the mice. TGI was calculated as described above in (1).

T-DM1
TGI (%) (JIMT-1 cells): 28%
TGI (%) (GA0006 tumor mass): 86.97%
TGI (%) (BT-474 cells): 43%
TGI (%) (Calu-3 cells): 64%
TGI (%) [1]: −11.04%
final tumor volume (mm^3) [2]: 774.76 mm^3
TGI (%) [3]: 54.80%
affinity (EC50) (ng/ml) (MDA-MB-468 (HER2−)): No binding
affinity (EC50) (BT-474 (HER2+++)): 2.419 µg/mL
affinity (EC50) (JIMT-1 (HER2+)): 0.5105 µg/mL
TGI (%) (BR0438 tumor mass): 3.65%
